IC50 data for five molecules are collected here from US20220378801A1, “NOVEL COMPOUNDS” (AC Immune SA, priority 2019, published 2022).

What is called pIC50 is the negative decadic logarithm of the IC50, by convention in mol/L. Low readings indicate a high IC50, high ones a low IC50.

Holding throughout (type): cell-based
The target of assay [1] is T1, NLRP3 inflammasome (Homo sapiens, UniProt Q96P20). The experiment in a line: NLRP3 inflammasome activation assay, IL-1 beta release, human monocyte-like cells, Nigericin stimulation. On the set-up: endogenous in cells. The conditions noted are these: PMA-differentiated, LPS-primed human monocyte-like cells; Nigericin 3.75 μM 3 h; IL-1β by AlphaLISA. As for the experimental part:
(§1) The following assays can be used to determine the inhibitory activity of test compounds on the NLRP3 inflammasome using common stimuli nigericin (Invivogen) or monosodium urate crystals (MSU)(Invivogen).
(§2) Human monocyte-like cells are cultured in RPM11640 Glutamax medium supplemented with 10% heat inactivated FCS and 50 U/ml penicillin-streptomycin (Life Technologies). HMDM (Human Monocyte Derived Macrophage) are isolated from human blood with leucosep tubes and classical monocyte isolation kit from Miltenyi based on negative selection.
(§3) NLRP3 inflammasome activation assays Human monocyte-like cells are seeded at 75000 per well in a 96 well plate and differentiated overnight into macrophages with 10 ng/ml PMA (Phorbol Myristate Acetate). The following day, medium containing 10 ng/ml LPS (lipopolysaccharide) is added. After 3 h of LPS priming, concentrations of test compound in the range from 100 μM to 6 nM are added 30 min prior to NLRP3 inflammasome stimulation with Nigericin 3.75 μM or MSU 150 μg/ml for 3 h.
(§4) For IL-1β quantification, supernatants are analyzed using AlphaLISA kits according to the manufacturer's instructions (Perkin Elmer AlphaLISA AL220F).
(§5) IC50 (concentration corresponding to 50% inhibition) were determined using GraphPad Prism 8.
Background: In Alpha technology, singlet oxygen from a donor bead excites a nearby acceptor bead.

The target in assay [2] is T1, NLRP3 inflammasome. The experiment in a line: NLRP3 inflammasome activation assay, IL-1 beta release, HMDM cells, MSU stimulation. The conditions noted are these: LPS-primed primary human monocyte-derived macrophages; MSU 150 μg/ml 3 h; IL-1β by AlphaLISA. As for the experimental part:
as §1, §2
(§6) Primary human monocyte-derived macrophages (HMDM) are seeded at 30000 per well in a 96 well plate and differentiated into macrophages with 10 ng/ml Human M-CSF (Macrophage Colony Stimulating Factor). At DIV 8 (Day in vitro) medium containing 10 ng/ml LPS is added. After 3 h of LPS priming, concentrations of test compound in the range from […] are added 30 min prior to NLRP3 inflammasome stimulation with Nigericin 2.5 μM or MSU 150 μg/ml for 3 h.
as §4, §5

For assay [3], the target named is T1, NLRP3 inflammasome. The experiment in a line: NLRP3 inflammasome activation assay, IL-1 beta release, human monocyte-like cells, MSU stimulation. Also noted: endogenous in cells. The conditions noted are these: PMA-differentiated, LPS-primed human monocyte-like cells; MSU 150 μg/ml 3 h; IL-1β by AlphaLISA. As for the experimental part:
as §1, §2, §3, §4, §5

The target in assay [4] is T1, NLRP3 inflammasome. Briefly: NLRP3 inflammasome activation assay, IL-1 beta release, HMDM cells, Nigericin stimulation. Conditions: LPS-primed primary human monocyte-derived macrophages; Nigericin 2.5 μM 3 h; IL-1β by AlphaLISA. As for the experimental part:
as §1, §2, §6, §4, §5

pIC50: −log10 of the molar value. A value given as a limit tells only on which side of the number the result lay.

T1 sequence (Q96P20 whole entry): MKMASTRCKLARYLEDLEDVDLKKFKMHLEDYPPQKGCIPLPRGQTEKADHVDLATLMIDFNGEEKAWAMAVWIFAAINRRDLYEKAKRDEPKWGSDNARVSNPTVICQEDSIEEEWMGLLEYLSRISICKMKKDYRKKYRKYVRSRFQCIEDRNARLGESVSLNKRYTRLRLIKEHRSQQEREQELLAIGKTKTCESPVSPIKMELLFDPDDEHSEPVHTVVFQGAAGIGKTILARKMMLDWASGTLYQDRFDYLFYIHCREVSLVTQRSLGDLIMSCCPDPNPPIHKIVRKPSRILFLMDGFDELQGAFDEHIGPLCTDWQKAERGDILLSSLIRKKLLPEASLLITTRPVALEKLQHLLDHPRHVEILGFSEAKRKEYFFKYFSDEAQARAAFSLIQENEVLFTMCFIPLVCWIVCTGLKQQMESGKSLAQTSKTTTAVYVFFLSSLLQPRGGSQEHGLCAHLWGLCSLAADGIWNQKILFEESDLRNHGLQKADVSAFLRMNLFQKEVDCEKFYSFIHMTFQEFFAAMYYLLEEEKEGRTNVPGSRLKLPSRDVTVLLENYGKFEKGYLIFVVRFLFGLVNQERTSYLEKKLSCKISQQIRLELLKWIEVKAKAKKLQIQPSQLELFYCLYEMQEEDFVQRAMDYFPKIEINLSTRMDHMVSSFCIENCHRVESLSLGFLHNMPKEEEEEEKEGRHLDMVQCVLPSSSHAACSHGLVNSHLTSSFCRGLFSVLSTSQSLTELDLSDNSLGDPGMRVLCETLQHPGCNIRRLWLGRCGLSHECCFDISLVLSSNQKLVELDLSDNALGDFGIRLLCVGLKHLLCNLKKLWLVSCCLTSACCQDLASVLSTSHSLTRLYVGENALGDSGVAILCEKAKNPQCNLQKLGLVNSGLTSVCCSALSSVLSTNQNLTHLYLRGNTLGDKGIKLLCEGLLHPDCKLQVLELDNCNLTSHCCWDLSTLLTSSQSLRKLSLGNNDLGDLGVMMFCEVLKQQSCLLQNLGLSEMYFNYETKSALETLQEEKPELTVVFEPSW

Take `O=C(Nc1c2c(cc3c1CCC3)CCC2)NS1(=O)=NC(=O)c2c(Cl)cccc21` (single isomer, unassigned) [Example 42]: the pIC50 in assay [1] is 5.00 to 6.00; in assay [2], greater than 6.00; in assay [3], greater than 6.00; in assay [4], 5.00 to 6.00.
`O=C(Nc1c2c(cc3c1CCC3)CCC2)NS1(=O)=NC(=O)c2sccc21` (centres unmarked) [Example 4]: the pIC50 in assay [1] is greater than 6.00; in assay [2], greater than 6.00; in assay [3] it was greater than 6.00; in assay [4], 5.00 to 6.00.
On to `O=C(N=S1(=O)NC(=O)c2ccc(Br)cc21)Nc1c2c(cc3c1CCC3)CCC2` (single isomer, unassigned) [Example 60], for which the pIC50 in assay [1] was greater than 6.00; in assay [2] it was greater than 6.00; in assay [3], greater than 6.00; in assay [4], 5.00 to 6.00.
Regarding `O=C(Nc1c2c(c(F)c3c1CCC3)CCC2)NS1(=O)=NC(=O)c2ccccc21` (single isomer, unassigned) [Example 37], the pIC50 in assay [1] was greater than 6.00; in assay [2] it was greater than 6.00; in assay [3], greater than 6.00; in assay [4], 5.00 to 6.00.
Regarding `CC(C)(O)c1ccc2c(c1)S(=O)(=NC(=O)Nc1c3c(cc4c1CCC4)CCC3)NC2=O` (single isomer, unassigned) [Example 41], the pIC50 in assay [1], in assay [2], in assay [3] and in assay [4] was greater than 6.00 throughout.
